{
  "source": "paper PMC8280112",
  "about": "“Substrate reduction therapy for Krabbe disease and metachromatic leukodystrophy using a novel ceramide galactosyltransferase inhibitor” (Scientific Reports, 2021)",
  "key": {"wild-type mice [1]": {"system": "wild-type mice", "test": "Low dose treatment of wild-type mice PND3 to PND70: vacuolation", "format": "in vivo, mouse", "settings": "PND3 to PND70, 0.15 mg/kg"}, "[2]": {"system": "GalCer and sulfatide levels", "test": "PND3 wild-type mouse repeat dose study: LC-MS of GalCer and sulfatide in brain and sciatic nerve", "format": "in vivo", "settings": "wild-type mice", "method": "Animals were euthanized by exsanguinations under deep anesthesia, the brain and sciatic nerve were removed, rinsed in cold saline, dried, and snap frozen for lipid quantification.\nWhole brain was homogenized in 3 volumes H2O (v/w) and further diluted as necessary in H2O. Given the small size, the sciatic nerve weight was recorded and homogenized in a larger fixed volume. 25 µL of diluted homogenate was added to 35 µL DMSO, 200 µL of methanol, and 325 µL acetone/methanol (50/50) and vortexed approximately 30 min. Next, 150 µL water and 300 µL water/methanol (13/87) were added before centrifuging for 5 min at RT at 14,000 rpm. […] supernatant was transferred onto a pre-conditioned C18-SPE cartridge, washed with 2 mL methanol/acetone/water (67/23/10), and eluted with 1.5 mL acetone/methanol (90/10). The eluate was dried before reconstituting with 50 µL DMSO (including N-C16:0-CD3-Glucosylceramide, IS Matreya) and 200 ACN. 3 µL of suspension was injected into LC–MS/MS for analysis. GalCers were separated from isobaric GluCers by Halo-Hilic (4.6 × 150 mm, 2.7 µm) column with a mobile phase of 95/2.5/2.5 ACN/MeOH/H2O (with 0.5 FA + 5 mM NH4OAc) 100% for 9.5 min at 50 °C and a 0.50 mL/min flow rate. Non-hydroxy-GalCer and 2-hydroxy-GalCer were detected using MRM on an LC–MS/MS (Agilent 6410) in positive ESI mode. Purified non-hydroxy-GalCer (Kerasin, Matreya) or 2-hydroxy-GalCer (Phrenosin, Matreya) were used as reference standards. All non-hydroxy-GalCer or 2-hydroxy-GalCer species identified in the reference standards were summed, normalized to the IS, and reported as percentage of vehicle control (Fig. 2B,C). In Supplementary Figure S1, individual acyl chains were identified, normalized to the IS, and plotted as percentage of vehicle control.\nPreviously diluted brain homogenate was serially diluted (10 µL into 90 µL and then 20 µL into 80 µL) in ACN/H2O (v/v 1:1) before being added to 300 µL ACN with IS (N-C18:0-CD3-sulfatide, Matreya). […] Non-hydroxy-sulfatide and 2-hydroxy-sulfatide were detected using MRM on a UPLC-MS/MS-22 (Triple Quad 6500) in positive ESI mode. […]"}, "wild-type mice [3]": {"system": "wild-type mice", "test": "PND15 wild-type mice tolerability study: clinical signs, wire hang, NCV, histology", "format": "in vivo, mouse", "method": "Animals were euthanized with CO2 followed by cardiac puncture. Blood was collected via cardiac puncture and split for blood chemistry and hematology.\nBeginning on the 2nd week of treatment mice were trained weekly for two weeks. Mice are placed on a wire grid, which is shaken to increase wire grabbing, and then immediately turned over. Mice are timed for their ability to hang from the inverted grid for 1 min. Three trials are performed, up to 1 min each, with a 30 s recovery period between trials. After training, mice were tested weekly and times recorded. The test was done with the grid held 10–12 in. over a box of clean shavings.\nBrains were collected after removal of the calvarium, weighted, and halved following the midline. The brain was sectioned in the mid-sagittal plane with half placed in 10% NBF. One sciatic nerve and other organs [heart, lung, liver, spleen, kidney, adrenal glands, stomach, small intestine, large intestine, spinal cord (cervical, thoracic, lumbar), skin, testes, and lymph nodes] were also collected and fixed in 10% NBF. Sections of sciatic nerve were also fixed in 2% PFA, 2% glutaraldehyde, embedded, sectioned and stained with Toluidine blue before scanning. Images were analyzed to determine the G-ratio in the […].\nMice were anesthetized with isoflurane and placed on a thermostatically controlled heating pad to maintain body temperature. The recording electrode was inserted into the plantar muscles and a reference electrode was placed in the skin between toes. A pair of subcutaneous stimulating electrodes were placed distally on both sides of the ankle to stimulate the lateral plantar nerve. For proximal stimulation, the electrodes are moved to the level of the sciatic notch, to the depth of the sciatic nerve. […] Six distally-produced CMAPs were recorded and stored. The procedure was repeated using the proximal electrode pair, and current was increased until a CMAP that matches that produced by distal stimulation was evident. Six proximally-produced CMAPs were recorded and stored. The distance between the sites of stimulation was measured. NCV was later calculated using the two latencies and conduction distance. The H wave was recorded during the recording of the distally stimulated CMAPs."}, "[4]": {"system": "GalCer and psychosine levels", "test": "Twitcher mouse brain psychosine and galactosylceramide analysis", "format": "in vivo", "settings": "Twitcher mice treated PND3-PND28", "method": "Mice heterozygous for the Twitcher mutation on the congenic C57BL/6 background were originally purchased from The Jackson Laboratories (stock #000845). Homozygous GALC −/− animals were generated from heterozygous mating. Genotypes were determined on PND1 by PCR as previously described[43],[44]. Animals that died prior to weaning on PND28 were excluded from the study unless otherwise noted. Animals were euthanized when they became moribund as defined by any of the following: losing 25% of their maximal body weight, ataxia severe enough to impair ability to eat or drink, or lack of response to tactile stimulus. Animals used for tissue collection were euthanized by anesthetic overdose and perfused transcardially with PBS for three min. Animals for lifespan analysis were euthanized using CO2 compressed gas delivered at 10–30% chamber volume displacement per min. […] Tissues were harvested and flash frozen in liquid nitrogen.\nGalactosylsphingosine (psychosine), and galactosylceramide were measured by tandem mass spectrometry as previously described. Briefly, tissue samples were homogenized in 0.04 M citric acid. Internal controls in 200 µL methanol were added to 50 µL of each sample. […] Galactosylsphingosine and galactosylceramide were detected using MRM on an AB SCIEX 4000QTRAP tandem mass spectrometer using ESI in the positive ion mode. […]"}, "[5]": {"settings": "wild-type mice, chronic, 2.3 and 5.4 mg/kg"}},
  "data": [
    {"smiles": "C[C@H]1N(c2ccc(Br)cc2)C(=O)N(c2ccc(Br)cc2)C1(O)c1cccc(OC(F)(F)F)c1", "note": "(stereo partly drawn) [S202]", "values": [
      {"measurement": "vacuolation in brain, spine and sciatic nerve", "setting": "wild-type mice [1]", "result": "vacuolation was observed in a similar pattern, but was much less severe"},
      {"measurement": "GalCer synthesis in the brains", "setting": "[2]; higher doses (> 1.5 mg/kg)", "result": "reduced synthesis of both non-hydroxy-GalCer and 2-hydroxy-GalCer"},
      {"measurement": "2-hydroxy-GalCer levels in the brains", "setting": "[2]; lower doses", "result": "consistently increase"},
      {"measurement": "non-hydroxy-GalCer levels in the brains", "setting": "[2]; lower doses (0.015 to 0.5 mg/kg)", "result": "greatly decreased"},
      {"measurement": "testes histopathology", "setting": "wild-type mice [3]; wild-type mice treated from PND15 to PND70", "result": "germ cell exfoliation with decreased germinal epithelial layers"},
      {"measurement": "longer-term (8 week) tolerability", "setting": "wild-type mice [3]; wild-type mice, IP three times per week from PND15, 2.3 mg/kg and 5.4 mg/kg", "result": "well tolerated with no mortality, change in weight, or grossly abnormal clinical signs"},
      {"measurement": "brain and spinal cord histology (H&E, luxol fast blue/PAS)", "setting": "wild-type mice [3]; wild-type mice, chronic treatment from PND15", "result": "widespread vacuolation"},
      {"measurement": "sciatic nerve conduction velocity (NCV)", "setting": "wild-type mice [3]; [5]", "result": "significant and dose-dependent reduction"},
      {"measurement": "wire hang test", "setting": "wild-type mice [3]; [5]", "result": "impaired performance on the wire hang test"},
      {"measurement": "gait", "setting": "wild-type mice [3]; wild-type mice, chronic, 2.3 and 5.4 mg/kg, some mice", "result": "mild gait abnormality"},
      {"measurement": "non-hydroxy-GalCer in the brain", "setting": "[4]", "result": "dose-dependent reduction"},
      {"measurement": "psychosine levels in the brain", "setting": "[4]", "result": "reduced to the same extent as the non-hydroxy-GalCer"}
    ]}
  ]
}
